# Source: ChEMBL document CHEMBL1201862, “PubChem BioAssay data set” (2004)
# Activity calls are given as the source filed them. Rule as the data show it: actives have a measured IC50 and inactives only a lower limit.
# Target: Envelope glycoprotein gp160 (Human immunodeficiency virus 1, UniProt Q6QLK5)
# Assay: cell-free HIV fusion peptide-binding blockers – biochemical, uHTS, fluorescence dequenching, […] (AID 1986)
# Envelope glycoprotein gp160, sequence (Q6QLK5 whole entry, the tested form may be a part): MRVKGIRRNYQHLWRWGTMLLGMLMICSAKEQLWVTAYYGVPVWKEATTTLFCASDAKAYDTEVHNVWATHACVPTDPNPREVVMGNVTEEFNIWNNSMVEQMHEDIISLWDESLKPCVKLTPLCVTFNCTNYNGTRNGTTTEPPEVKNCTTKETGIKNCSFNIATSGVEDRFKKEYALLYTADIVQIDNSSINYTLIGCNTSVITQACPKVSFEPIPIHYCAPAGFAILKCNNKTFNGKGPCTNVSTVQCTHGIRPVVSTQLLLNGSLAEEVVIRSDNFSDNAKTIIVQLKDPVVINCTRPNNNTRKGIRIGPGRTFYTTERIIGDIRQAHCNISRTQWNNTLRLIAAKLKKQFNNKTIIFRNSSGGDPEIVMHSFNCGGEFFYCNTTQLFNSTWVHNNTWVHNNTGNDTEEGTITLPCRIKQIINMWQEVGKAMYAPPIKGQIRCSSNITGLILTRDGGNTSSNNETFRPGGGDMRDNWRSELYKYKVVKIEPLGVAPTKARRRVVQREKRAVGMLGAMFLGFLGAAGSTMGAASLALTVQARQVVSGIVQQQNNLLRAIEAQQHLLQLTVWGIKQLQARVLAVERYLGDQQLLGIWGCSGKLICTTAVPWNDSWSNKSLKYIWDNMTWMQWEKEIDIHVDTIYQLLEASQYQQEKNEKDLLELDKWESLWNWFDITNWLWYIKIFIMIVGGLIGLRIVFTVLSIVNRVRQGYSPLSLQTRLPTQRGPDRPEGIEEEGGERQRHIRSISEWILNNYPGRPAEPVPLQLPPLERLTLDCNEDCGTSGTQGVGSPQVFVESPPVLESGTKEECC
row,Compound,IC50
1,O=C(NCCc1ccccc1)c1ccc2c(=O)[nH]c3c(C(=O)NCC4CCCO4)sc(=S)n3c2c1 (centres undefined),27.8 µM (active)
2,CCOc1cc(/C=C2\C(=O)N(c3cccc(C(=O)O)c3)N=C2C(F)(F)F)ccc1OCC(=O)Nc1ccccc1OC,3.88 µM (active)
3,COc1ccc(-c2cc(-c3ccc(Cl)cc3)c(C#N)c(SCC(=O)O)n2)cc1,19.4 µM (active)
4,O=C(O)c1ccc(/C=N/NC(=O)c2ccc(CN3c4cccc5cccc(c45)S3(=O)=O)cc2)cc1,19.7 µM (active)
